Test results reported in patent EP4635953A1, “PYRROLOPYRIDINE DERIVATIVE, AND PHARMACEUTICAL COMPOSITION THEREOF AND USE THEREOF” (Iregene Therapeutics Co., Ltd, priority 2022, dated 2024).
Read-outs that look alike come from different tables or passages of the source.

Target: single-stranded miR-145
Assay: Isothermal titration calorimetry (ITC), Waters Nano-ITC
Type: binding
Details: for Kd: Multiple Sites model
Text: Isothermal titration calorimetry (ITC) utilizes the principle of power compensation to accurately obtain the enthalpy change of intermolecular interactions within a broad concentration range in the system through a single concentration scan. It measures the heat change during binding and provides the complete thermodynamic characteristics of nucleic acid-ligand interactions. Quantifying the thermodynamic properties and energy of the complex is essential for analyzing the molecular basis of the interaction between the microRNA miR-145 and the compound. The present invention uses the Waters Nano-ITC calorimeter to in vitro verify the nucleic acid-small molecule interactions.
The experimental process involves placing 300µL of a 50µM single-stranded miR-145 solution in a temperaturecontrolled sample chamber, and using small molecule A-3-6 (i.e., the 2-phenyl-N-(1H-pyrrolo[2,3-c]pyridine-5-yl)acetamide obtained in Example 9) as the ligand in a 50µL, 500µM concentration, which is gradually injected (or titrated) into the sample chamber. The heat change is measured by comparing the sample chamber with a reference chamber, showing either an endothermic or exothermic peak. The interaction pattern between the two reactants is fitted using the software provided by the instrument, and it directly calculates the reaction binding enthalpy (ΔH, kJ/mol), reaction binding entropy (ΔS, J/(mol·K)), number of binding sites (n), and binding equilibrium constant (Ka, M), obtaining the kinetic data. […] The calculated number of binding sites (nSite) for A-3-6 with miR-145 solution are n1=3 and n2=1.8, with Kd1=7.017E-8 and Kd2=7.544E-9, ΔH1=-69.08 and ΔH2=-137.2, ΔS1=-9.474E1 and ΔS2=-3.048E2.

Kd (site 1, read-out: Kd1): 70.2 nM | Kd (site 2, read-out: Kd2): 7.54 nM | binding to the target single-stranded miR-145 (conclusion from the ITC experiment): can specifically bind
Structure (SMILES): O=C(Cc1ccccc1)Nc1cc2cc[nH]c2cn1 [Compound A-3-6, 2-Phenyl-N-(1H-Pyrrolo[2,3-c]pyridin-5-yl)acetamide]
